Experimental data: patent US20260070921A1, “COMPOUND, ENDOPLASMIC RETICULUM STRESS INHIBITOR, PHARMACEUTICAL PRODUCT, OPHTHALMIC AGENT, EYE DROPS, COMPOSITION, AND METHOD FOR PRODUCING COMPOUND” (KYOTO UNIVERSITY, priority 2022, published 2026)

What was measured:
Format in all cases: cell-based
HEK293 cells [1] = assay: Fluorescence imaging of self-assemblies in living cells (DCVJ); conditions: DCVJ 1.0 μM
Procedure: HEK293 cells were incubated with compound 1, 4, 5, or 6 (25 or 100 μM) in the presence of 1.0 μM DCVJ in DMEM (10% FBS). Fluorescence and bright-field images were taken with a CV1000 confocal microscope equipped with a 40× objective lens (Yokogawa Electric Corporation).
The ability of compound 1 and its derivatives, compounds 4 to 6, to form assemblies was also monitored in living cells. […] HEK293 cells were treated with compound 1, 4, 5, or 6 (25 μM or 100 μM) and 1.0 μM of DCVJ for 8 hours. Fluorescence and bright-field images were taken with a CV1000 confocal microscope. HEK293 cells were treated with compound 1, 4, 5, or 6 (25 or 100 μM) and DCVJ (1.0 μM) for 8 hours and observed with a confocal microscope. […] The self-assembling ability of the molecules of compound 6 may be due to its cellular activity at that concentration, even at 25 μM. […] To further support the importance of self-organization formation in cellular activity, dose-response curves for compounds 1 and 6 were determined. The biological activity of the compounds' molecular assembly is expected to be more cooperative than that of the monomer and to show a steeper dose-response curve (Reference Material 18 below). […] Compound 6 is referred to as “selfonamide” below. […] P. A High-Throughput Screen for Aggregation-Based Inhibition in a Large Compound Library. J Med Chem 2007, 50 (10), 2385-2390. https://doi.org/10.1021/jm061317y.

HEK293 cells [2] = assay: Tunicamycin assay (cell viability under ER stress, WST-8); parameters: key to Efficacy 5 μM (ER stress inhibition activity) / Efficacy 25 μM (ER stress inhibition activity) / Efficacy 100 μM (ER stress inhibition activity): “−” indicates no activity; “+” indicates weak activity; “++” indicates strong activity; conditions: for EC50: Homo sapiens, HEK293, read-out: EC50 (dose-response curve, Hill equation); for EC50 / Concentration at which activity was shown: tunicamycin 5.0 μg/mL 48 h
Procedure: HEK293 cells were seeded in 96-well plates ([…]) and incubated at 37° C. for 2 hours. The medium was then replaced with 100 μL of DMEM ([…]) containing self-assembling chemicals (20 or more compounds, including compounds of the present disclosure) and 1% DMSO. After incubation with any one of compounds 1 to 6 at a given concentration for 12 to 18 hours, HEK293 cells were treated with tunicamycin (5 μg/mL) or thapsigargin (10 μM) for 48 hours, and cell viability was measured using a WST-8 cell counting kit (Dojindo Laboratories).
Produced compounds XD8 to XD28 were subjected to a tunicamycin assay in the same manner as in Examples 1 to 9. Specifically, HEK293 cells were first seeded in a 96-well plate (1×10^4 cells/well) and incubated at 37° C. for 2 hours. The medium was then replaced with 100 μL of DMEM (10% FBS) containing a self-assembling chemical (each of compounds XD8 to XD28) and […]. After incubation with any of compounds XD8 to XD28 at a concentration of 5.0 μM, 25 μM, or 100 μM for 12 to 18 hours, HEK293 cells were treated with tunicamycin (5 μg/mL) for 48 hours, followed by measuring cell viability by using a WST-8 cell counting kit (Dojindo Laboratories).

HEK293 cells [3] = assay: Tunicamycin assay using an autophagy or proteasome inhibitor; conditions: pre-incubation 16 h, tunicamycin 5.0 μg/mL 48 h
Procedure: Cellular protein aggregates are often cleared by cellular mechanisms, such as autophagy and ubiquitin-proteasome system. To examine the importance of these proteolytic pathways in the activity of compounds 1 and 6, their ability to inhibit tunicamycin-induced cytotoxicity in the presence of an autophagy or proteasome inhibitor (bafilomycin A1 or MG132, respectively) was measured. FIG. 9 is a graph showing the results of a tunicamycin assay using an autophagy or proteasome inhibitor. Cells were pre-incubated with compound 1 or compound 6 for 16 hours and then treated with tunicamycin (5.0 μg/mL) in the presence or absence of a specified substance for 48 hours. FIG. 9(A) is a graph showing measurements in the presence or absence of bafilomycin A1 (Baf A1, autophagy inhibitor). FIG. 9(B) is a graph showing measurements in the presence or absence of MG132 (proteasome inhibitor). Error bars represent s.d. (n=3). Statistical analysis was performed according to the one-way ANOVA and Dunnett's test. *P<0.05; n.s.: not significant. […] The concentrations used of the inhibitors were confirmed to be non-toxic to cells (FIGS. 31 and 32). To further study the role of autophagy, autophagy-deficient atg7^−/− and p62^−/− mouse embryonic fibroblasts (MEFs) were subjected to a tunicamycin assay. FIG. 10 is a graph showing the results of the tunicamycin assay using the autophagy-deficient cells. Wild-type (wt), atg7^−/−, or p62^−/− mouse embryonic fibroblasts (MEFs) were treated with molecule 1 (100 μM) or molecule 6 (25 μM) for 18 hours and then incubated with tunicamycin (5.0 μg/mL) for 48 hours. Error bars represent s.d. (n=3). Statistical analysis was performed according to the one-way ANOVA and Dunnett's test. *P<0.05, **P<0.01. ATG7 is an E1-like enzyme important for phagophore expansion, and p62 is an autophagy receptor for ubiquitinated substrates (Reference Material 20 below). Wild-type (wt), atg7^−/−, or p62^−/− MEF cells were treated with compound 1 or compound 6 for 18 hours, followed by treatment with tunicamycin (5.0 μg/mL) for 48 hours. […] Nat Rev Mol Cell Bio 2018, 19 (6), 349-364. https://doi.org/10.1038/s41580-018-0003-4.

COc1ccc2c(c1)sc1c(=O)nc3nc(Nc4ccc(S(N)(=O)=O)cc4)ccn3c12 [compound 6]
Assemblies within cells (HEK293 cells [1]; 25 μM, 8 h): showed detectable assemblies within cells | EC50 (HEK293 cells [2]): 13.7 µM | Efficacy 5 μM (ER stress inhibition activity) (HEK293 cells [2]; compound 5 μM 12 to 18 h, then tunicamycin 5 μg/mL 48 h): − | Efficacy 25 μM (ER stress inhibition activity) (HEK293 cells [2]; compound 25 μM 12 to 18 h, then tunicamycin 5 μg/mL 48 h): ++ | Efficacy 100 μM (ER stress inhibition activity) (HEK293 cells [2]; compound 100 μM 12 to 18 h, then tunicamycin 5 μg/mL 48 h): ++ | Concentration at which activity was shown (HEK293 cells [2]): 25 µM | Activity in the presence of MG132 (HEK293 cells [3]): no significant effect | Activity in the presence of bafilomycin A1 (HEK293 cells [3]): partially canceled

NS(=O)(=O)c1ccc(Nc2ccn3c(n2)nc(=O)c2sc4cc(F)ccc4c23)cc1 [compound 1]
Fluorescent particles within cells (HEK293 cells [1]; 100 μM, after 8 hours): fluorescent particles were observed within the cells | Cell viability under ER stress (HEK293 cells [2]; 100 μM pre-incubation 12 h, then thapsigargin 10 μM or tunicamycin 5.0 μg/mL 48 h): enhanced cell viability under ER stress conditions | EC50 (HEK293 cells [2]): 38.1 µM | Concentration at which activity was shown (HEK293 cells [2]): 100 µM | Activity in the presence of MG132 (HEK293 cells [3]): no significant effect | Activity in the presence of bafilomycin A1 (HEK293 cells [3]): partially canceled
